Read-outs that look alike come from different tables or passages of the source.
Key:
[1] = system: human oralepithelial carcinoma cell line (KB); experiment: In vitro cytotoxicity assay, cancer cell growth inhibition, KB cell
Description: (§1) For evaluating the in vitro growth inhibitory concentrations ([…], μM) of the compound represented by Formula 1 of the present disclosure, human oralepithelial carcinoma cell line (KB), multidrug-resistant nasopharyngeal carcinoma cell line (KB-Vin), human lung adenocarcinoma cell line (A549), and prostate cancer cell line (DU145) were used in the following experiment. The GI50 values of Paclitaxel, an anticancer chemotherapy drug, were used as control.

[2] = system: multidrug-resistant nasopharyngeal carcinoma cell line (KB-Vin); experiment: In vitro cytotoxicity assay, cancer cell growth inhibition, KB-Vin cell
Description: as §1

[3] = system: human lung adenocarcinoma cell line (A549); experiment: In vitro cytotoxicity assay, cancer cell growth inhibition, A549 cell
Description: as §1

[4] = system: prostate cancer cell line (DU145); experiment: In vitro cytotoxicity assay, cancer cell growth inhibition, DU145 cell
Description: as §1

GSTO1 = molecular target: T1, GSTO1 (Homo sapiens, UniProt P78417); experiment: Enzyme activity assay of GST omega 1 (GSTO1) with 4NPG substrate; assay type: biochemical; details: 2 nM GSTO1, 0.5 mM 4NPG, 30 min 25° C. pre-reaction, O.D.305
T1 sequence (P78417 1-241): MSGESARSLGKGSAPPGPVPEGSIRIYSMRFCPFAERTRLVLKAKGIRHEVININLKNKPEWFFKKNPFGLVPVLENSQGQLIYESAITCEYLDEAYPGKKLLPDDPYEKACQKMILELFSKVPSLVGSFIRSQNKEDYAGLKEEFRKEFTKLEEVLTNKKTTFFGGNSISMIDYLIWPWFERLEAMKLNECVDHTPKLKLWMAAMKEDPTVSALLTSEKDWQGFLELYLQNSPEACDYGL
Protocol: First, 100 μl mixture having 2 nM GSTO1, 100 mM Tris (pH 8.0), 1.5 mM EDTA, and 10 mM 2-mercaptoethanol were added into each well of an UV-penetrable 96-well culture plate. Besides, 100 μl buffer having 100 mM Tris (pH 8.0), 1.5 mM EDTA, and 10 mM 2-mercaptoethanol were used as blank control.
Then, 4NPG were added to each of the aforementioned mixture to a final concentration of 0.5 mM.

[5] = Homo sapiens, A549, read-out: In vitro cytotoxicity assay: GI50 (μM) A549 cell
[6] = Homo sapiens, DU-145, read-out: In vitro cytotoxicity assay: GI50 (μM) DU145 cell
[7] = read-out: In vitro cytotoxicity assay: GI50 (μM) A549 cell, A549 cell
[8] = read-out: In vitro cytotoxicity assay: GI50 (μM) DU145 cell, DU145 cell

| SMILES | In vitro cytotoxicity assay: GI50 (μM) KB cell ([1]; KB cell) [µM] | In vitro cytotoxicity assay: GI50 (μM) KB-Vin cell ([2]; KB-Vin cell) [µM] | In vitro cytotoxicity assay: GI50 (μM) KB cell [1] [µM] | In vitro cytotoxicity assay: GI50 (μM) KB-Vin cell [2] [µM] | GI50 [3] [µM] | GI50 [4] [µM] | also measured |
| --- | --- | --- | --- | --- | --- | --- | --- |
| O=C1C=CC(O)(c2cc(=O)c3c(ccc4ccccc43)o2)C=C1 [Compound main structure] | 0.865 | 0.674 |  |  |  |  | GI50 [3, 5]: 0.763 µM; GI50 [4, 6]: 0.799 µM |
| CC(=O)O[C@H]1C(=O)[C@@]2(C)[C@H]([C@H](OC(=O)c3ccccc3)[C@]3(O)C[C@H](OC(=O)[C@H](O)[C@@H](NC(=O)c4ccccc4)c4ccccc4)C(C)=C1C3(C)C)[C@]1(OC(C)=O)CO[C@@H]1C[C@@H]2O [Paclitaxel, reference compound] |  |  |  |  |  |  | GI50 KB cell (control) ([1]; KB cell): 4.64 nM; GI50 KB-Vin cell (control) ([2]; KB-Vin cell): >1000 nM; GI50 ([3]; Homo sapiens, A549, read-out: GI50 A549 cell (control)): 0.00356 µM; GI50 ([4]; Homo sapiens, DU-145, read-out: GI50 DU145 cell (control)): 0.003 µM |
| O=C1C=CC(O)(c2cc(=O)c3c(O)cc(O)cc3o2)C=C1 [compound A] |  |  |  |  |  |  | inhibitory effect against GSTO1 enzyme activity (competition with 4NPG, FIG. 1) (GSTO1): slight |
| COc1ccc2c(ccc3oc(C4(O)C=CC(=O)C=C4)cc(=O)c32)c1 [compound B] |  |  |  |  |  |  | inhibitory effect against GSTO1 enzyme activity (competition with 4NPG, FIG. 1) (GSTO1): slight |
| O=C1C=CC(O)(c2cc(=O)c3c(ccc4cc(OC(=O)N5CCOCC5)ccc43)o2)C=C1 [side chain No. 6] |  |  | 0.607 | 0.64 | 0.603 | 0.617 |  |
| O=C1C=CC(O)(c2cc(=O)c3c(ccc4cc(OC(=O)N5CCCCC5)ccc43)o2)C=C1 [side chain No. 7] |  |  | 0.615 | 0.619 | 0.536 | 0.522 |  |
| COc1ccc2c(ccc3oc(C4(O)C=CC(=O)C=C4)cc(=O)c32)c1 [side chain No. 8] | 0.871 | 0.692 |  |  |  |  | GI50 [3, 7]: 0.811 µM; GI50 [4, 8]: 0.707 µM |
| COCOc1ccc2c(ccc3oc(C4(O)C=CC(=O)C=C4)cc(=O)c32)c1 [side chain No. 10] | 0.786 | 0.766 |  |  |  |  | GI50 [3, 7]: 0.819 µM; GI50 [4, 8]: 0.865 µM |
| CC(C)CCOc1ccc2c(ccc3oc(C4(O)C=CC(=O)C=C4)cc(=O)c32)c1 [side chain No. 11] | 0.2 | 0.269 |  |  |  |  | GI50 [3, 5]: 0.382 µM; GI50 [4, 6]: 0.231 µM |
| CC(C)CCCC(C)CCOc1ccc2c(ccc3oc(C4(O)C=CC(=O)C=C4)cc(=O)c32)c1 (centres unmarked) [side chain No. 12] | 0.067 | 0.335 |  |  |  |  | GI50 [3, 5]: 0.233 µM; GI50 [4, 6]: 0.065 µM |
| CCC(C)CCCC(C)CCOc1ccc2c(ccc3oc(C4(O)C=CC(=O)C=C4)cc(=O)c32)c1 (centres unmarked) [side chain No. 13] |  |  | 1.115 | 1.883 | 4.27 | 1.26 |  |
| CN(C)CCOc1ccc2c(ccc3oc(C4(O)C=CC(=O)C=C4)cc(=O)c32)c1 [side chain No. 14] | 0.683 | 0.841 |  |  |  |  | GI50 [3, 7]: 0.754 µM; GI50 [4, 8]: 0.808 µM |
| CCN(CC)CCOc1ccc2c(ccc3oc(C4(O)C=CC(=O)C=C4)cc(=O)c32)c1 [side chain No. 15] |  |  | 0.644 | 1.325 | 0.551 | 0.685 |  |
| CC(C)N(CCOc1ccc2c(ccc3oc(C4(O)C=CC(=O)C=C4)cc(=O)c32)c1)C(C)C [side chain No. 16] |  |  | 0.55 | 0.682 | 0.584 | 0.62 |  |
| O=C1C=CC(O)(c2cc(=O)c3c(ccc4cc(OCCN5CCCCC5)ccc43)o2)C=C1 [side chain No. 17] |  |  | 0.499 | 0.675 | 0.483 | 0.541 |  |
| O=C1C=CC(O)(c2cc(=O)c3c(ccc4cc(OCCN5CCCC5)ccc43)o2)C=C1 [side chain No. 18] |  |  | 0.552 | 1.108 | 0.628 | 0.693 |  |
| O=C1C=CC(O)(c2cc(=O)c3c(ccc4cc(O)ccc43)o2)C=C1 [side chain No. 19] | 0.944 | 0.738 |  |  |  |  | GI50 [3, 7]: 0.806 µM; GI50 [4, 8]: 0.709 µM |
